Measurements: publication doi:10.1101/2021.10.07.463234v2 (biorxiv, 2021)
Counter-ions that a name gives are not always drawn.

molecular target: SARS-CoV-2 Mac1 (Severe acute respiratory syndrome coronavirus 2, UniProt P0DTD1); experiment: biochemical; conditions: 100 µM; inhibitor

Structure (SMILES)	%inhibition [%]
CCOC(=O)C1=C[C@@H](OC(CC)CC)[C@H](NC(C)=O)[C@@H](N)C1 [Oseltamivir Phosphate]	4.261
O=C(O)/C=C/c1ccc(Cn2ccnc2)cc1 [Ozagrel HCl]	0
O=C(O)/C=C/c1ccc(Cn2ccnc2)cc1 [Ozagrel sodium]	1.667
O=C(O)/C=C/c1ccc(Cn2ccnc2)cc1 [Ozagrel]	4.368
COc1ccnc(C[S+]([O-])c2nc3cc(OC(F)F)ccc3[nH]2)c1OC (stereo not drawn) [Pantoprazole sodium]	0
COc1ccnc(C[S+]([O-])c2nc3cc(OC(F)F)ccc3[nH]2)c1OC (stereo not drawn) [Pantoprazole]	6.936
CCC(=O)NS(=O)(=O)c1ccc(-c2c(-c3ccccc3)noc2C)cc1 [Parecoxib Sodium]	8.572
CCC(=O)NS(=O)(=O)c1ccc(-c2c(-c3ccccc3)noc2C)cc1 [Parecoxib]	0
Fc1ccc([C@@H]2CCNC[C@H]2COc2ccc3c(c2)OCO3)cc1 [Paroxetine HCl]	28.69
Fc1ccc([C@@H]2CCNC[C@H]2COc2ccc3c(c2)OCO3)cc1 [Paroxetine mesylate]	0
Cc1ccc(Nc2nccc(N(C)c3ccc4c(C)n(C)nc4c3)n2)cc1S(N)(=O)=O [Pazopanib HCl (GW786034 HCl)]	31.56
Cc1ccc(Nc2nccc(N(C)c3ccc4c(C)n(C)nc4c3)n2)cc1S(N)(=O)=O [Pazopanib]	12.94
Nc1nc2[nH]cc(CCc3ccc(C(=O)N[C@@H](CCC(=O)O)C(=O)O)cc3)c2c(=O)[nH]1 [Pemetrexed]	4.612

same assay, conditions: read-out: %inhibition

Structure (SMILES)	inhibition at 100 µM [%]
O=C(O)c1cc(=O)[nH]c(=O)[nH]1 [Orotic acid (6-Carboxyuracil)]	0
C=CC(=O)Nc1cc(Nc2nccc(-c3cn(C)c4ccccc34)n2)c(OC)cc1N(C)CCN(C)C [Osimertinib (AZD9291)]	0
OCCOc1ccc(/C(=C(/CCCl)c2ccccc2)c2ccccc2)cc1 [Ospemifene]	16.8
CCNC1(C(N)=O)CCN(c2ncnc3c2nc(-c2ccccc2Cl)n3-c2ccc(Cl)cc2)CC1 [Otenabant (CP-945598) HCl]	2.29
CCCCCCCCOc1ccccc1C(=O)Nc1ccc(C(=O)OCC[N+](C)(CC)CC)cc1 [Otilonium Bromide]	11
C[C@@H]1O[C@@H](O[C@H]2C[C@@H](O)[C@]3(CO)[C@H]4[C@H](O)C[C@]5(C)[C@@H](C6=CC(=O)OC6)CC[C@]5(O)[C@@H]4CC[C@]3(O)C2)[C@H](O)[C@H](O)[C@H]1O [Ouabain]	0
CC(=O)N1C[C@H](O)C[C@H]1C(=O)O [Oxaceprol]	0
Cc1onc(-c2ccccc2)c1C(=O)N[C@@H]1C(=O)N2[C@@H]1SC(C)(C)[C@@H]2C(=O)O [Oxacillin sodium monohydrate]	0
O=C(O)CCc1nc(-c2ccccc2)c(-c2ccccc2)o1 [Oxaprozin]	11.8
NC(=O)N1c2ccccc2CC(=O)c2ccccc21 [Oxcarbazepine]	0
CCN(CC)CCOCCOC(=O)C(CC)(CC)c1ccccc1 [Oxeladin Citrate]	0.462
CN(C(=O)CN(CCO)CC(=O)N(C)C(C)(C)Cc1ccccc1)C(C)(C)Cc1ccccc1 [Oxethazaine]	19.2
COC(=O)Nc1nc2cc([S+]([O-])c3ccccc3)ccc2[nH]1 (stereo not drawn) [Oxfendazole]	0
NCCc1cc(O)c(O)cc1O [Oxidopamine (hydrobromide)]	0
NC(=O)CN1CC(O)CC1=O (stereo not drawn) [Oxiracetam]	21.6
COc1ccc(C(=O)c2ccccc2)c(O)c1 [Oxybenzone]	0.0343
CCCCOc1cc(C(=O)OCCN(CC)CC)ccc1N [Oxybuprocaine HCl]	8.43
O=C(Nc1cc(Cl)cc(Cl)c1O)c1c(O)c(Cl)cc(Cl)c1Cl [Oxyclozanide]	8.75
CN(C)[C@@H]1C(=O)C(C(N)=O)=C(O)[C@@]2(O)C(=O)C3=C(O)c4c(O)cccc4[C@@](C)(O)C3[C@H](O)C12 (stereo partly drawn) [Oxytetracycline (Terramycin)]	15.9

Structure (SMILES)	inhibition at 100 µM [%]
CN(C)[C@@H]1C(O)=C(C(N)=O)C(=O)[C@@]2(O)C(O)=C3C(=O)c4c(O)cccc4[C@@](C)(O)[C@H]3[C@H](O)[C@@H]12 [Oxytetracycline Dihydrate]	0
CC(C)Oc1ccc(-c2nc(-c3cccc4c3CC[C@@H]4NCCO)no2)cc1C#N [Ozanimod (RPC1063)]	0
CC(=O)O[C@H]1C(=O)[C@@]2(C)[C@H]([C@H](OC(=O)c3ccccc3)[C@]3(O)C[C@H](OC(=O)[C@H](O)[C@@H](NC(=O)c4ccccc4)c4ccccc4)C(C)=C1C3(C)C)[C@]1(OC(C)=O)CO[C@@H]1C[C@@H]2O [Paclitaxel]	6.04
C1=N/C2=N/c3ccc(OCCN4CCCC4)c(c3)COC/C=C/COCc3cccc(c3)C(=C1)N2 [Pacritinib (SB1518)]	0
CC(=O)c1c(C)c2cnc(Nc3ccc(N4CCNCC4)cn3)nc2n(C2CCCC2)c1=O [Palbociclib (PD-0332991) HCl]	0
Cc1nc2n(c(=O)c1CCN1CCC(c3noc4cc(F)ccc34)CC1)CCCC2O (stereo not drawn) [Paliperidone]	1.55
O=C1c2cccc3c2[C@H](CCC3)CN1[C@@H]1CN2CCC1CC2 [Palonosetron HCl]	0
NCCC(O)(P(=O)(O)O)P(=O)(O)O [Pamidronate Disodium]	0.654
CC(=O)O[C@H]1C[C@@H]2CC[C@@H]3[C@H](CC[C@@]4(C)[C@H]3C[C@H]([N+]3(C)CCCCC3)[C@@H]4OC(C)=O)[C@@]2(C)C[C@@H]1[N+]1(C)CCCCC1 [Pancuronium dibromide]	0
Cc1[nH]c2ccccc2c1CCNCc1ccc(/C=C/C(=O)NO)cc1 [Panobinostat (LBH589)]	7.31
C#CCN(C)Cc1ccccc1 [Pargyline hydrochloride]	0
Cc1cnc(C(=O)N[C@H]2CCCCC/C=C\[C@@H]3C[C@@]3(C(=O)NS(=O)(=O)C3CC3)NC(=O)[C@@H]3C[C@@H](Oc4nc5ccccc5c5ccccc45)CN3C2=O)cn1 [Paritaprevir (ABT-450)]	0
NC[C@@H]1O[C@H](O[C@H]2[C@@H](O)[C@H](O[C@@H]3[C@@H](O)[C@H](N)C[C@H](N)[C@H]3O[C@H]3O[C@H](CO)[C@@H](O)[C@H](O)[C@H]3N)O[C@@H]2CO)[C@H](N)[C@@H](O)[C@@H]1O [Paromomycin Sulfate]	0.814
C/C(=C\c1csc(C)n1)[C@@H]1C[C@@H]2O[C@]2(C)CCC[C@H](C)[C@H](O)[C@@H](C)C(=O)C(C)(C)[C@@H](O)CC(=O)O1 [Patupilone (EPO906, Epothilone B)]	19.2
C[C@H]1COc2c(C3(N)CC3)c(F)cc3c(=O)c(C(=O)O)cn1c23 [Pazufloxacin mesylate]	0
CCOc1cc2ncc(C#N)c(Nc3ccc(F)c(Cl)c3)c2cc1NC(=O)/C=C/CN(C)C [Pelitinib (EKB-569)]	0
Nc1nc2[nH]cc(CCc3ccc(C(=O)N[C@@H](CCC(=O)O)C(=O)O)cc3)c2c(=O)[nH]1 [Pemetrexed Disodium Hydrate]	6.24
Cc1cccn2c(=O)c(-c3nnn[nH]3)cnc12 [Pemirolast potassium]	0
CN1C(C)(C)CCCC1(C)C [Pempidine]	28.2
